From patent publication US20090093521A1, “2, 5-Bis-Diamine [1,4] Benzoquinone-Derivatives” (priority 2005, published 2009)

Legend:
AChE = AChE (Homo sapiens, UniProt P22303); format: biochemical; details: for IC50: Ellman method, saturating substrate (acetylthiocholine), absorbance at 412 nm; for Selectivity IC50 (BuChE)/IC50 (AchE): ratio of IC50 (BuChE) to IC50 (AChE), preference for AChE over BuChE
BuChE = BuChE (Homo sapiens, UniProt P06276); test: biochemical; format: biochemical; details: Ellman method, saturating substrate, absorbance at 412 nm
BuChE, sequence (P06276 29-602): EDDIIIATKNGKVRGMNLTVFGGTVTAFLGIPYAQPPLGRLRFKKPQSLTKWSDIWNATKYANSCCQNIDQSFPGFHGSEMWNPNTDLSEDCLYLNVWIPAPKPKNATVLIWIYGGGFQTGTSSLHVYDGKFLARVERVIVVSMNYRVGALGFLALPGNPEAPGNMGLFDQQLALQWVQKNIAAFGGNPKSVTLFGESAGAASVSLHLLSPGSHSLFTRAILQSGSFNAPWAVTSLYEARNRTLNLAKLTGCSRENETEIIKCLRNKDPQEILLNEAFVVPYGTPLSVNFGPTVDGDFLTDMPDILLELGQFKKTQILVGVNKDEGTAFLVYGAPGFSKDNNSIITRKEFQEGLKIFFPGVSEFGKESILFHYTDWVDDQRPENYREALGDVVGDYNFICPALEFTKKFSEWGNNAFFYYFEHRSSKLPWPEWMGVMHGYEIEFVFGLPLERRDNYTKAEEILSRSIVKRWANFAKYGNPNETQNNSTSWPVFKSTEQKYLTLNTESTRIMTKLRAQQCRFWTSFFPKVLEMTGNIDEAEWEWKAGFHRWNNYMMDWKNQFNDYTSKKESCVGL

AChE, sequence (P22303 32-614): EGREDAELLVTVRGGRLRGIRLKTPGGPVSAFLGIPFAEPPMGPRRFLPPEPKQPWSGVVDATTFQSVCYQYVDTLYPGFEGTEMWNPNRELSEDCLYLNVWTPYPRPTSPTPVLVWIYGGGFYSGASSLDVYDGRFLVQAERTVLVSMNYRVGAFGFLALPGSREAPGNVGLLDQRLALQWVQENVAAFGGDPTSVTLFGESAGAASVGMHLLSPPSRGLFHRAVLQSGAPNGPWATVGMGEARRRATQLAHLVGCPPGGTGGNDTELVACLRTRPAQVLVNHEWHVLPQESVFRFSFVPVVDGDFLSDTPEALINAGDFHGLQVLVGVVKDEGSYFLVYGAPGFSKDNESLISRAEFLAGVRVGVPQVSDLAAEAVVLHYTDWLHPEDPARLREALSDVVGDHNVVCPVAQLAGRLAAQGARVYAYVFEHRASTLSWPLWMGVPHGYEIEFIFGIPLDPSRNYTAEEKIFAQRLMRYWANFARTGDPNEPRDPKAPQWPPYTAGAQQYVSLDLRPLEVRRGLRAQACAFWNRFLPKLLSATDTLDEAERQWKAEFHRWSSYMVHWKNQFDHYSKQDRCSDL

SMILES | IC50 (AChE) [µM] | Selectivity IC50 (BuChE)/IC50 (AchE) (AChE) | IC50 (BuChE) [µM]
CCN(CCCCCCNC1=C(Br)C(=O)C(NCCCCCCN(CC)Cc2ccccc2OC)=C(Br)C1=O)Cc1ccccc1OC [Compound 36, 2,5-bis-{6-[ethyl-(2-methoxy-benzyl)-amine]-hexylamine}-3,6-dibromine-[1,4]benzoquinone] | 0.00266 ± 0.00019 | 300 | 0.8 ± 0.062
CCN(CCCCCCNC1=C(F)C(=O)C(NCCCCCCN(CC)Cc2ccccc2OC)=C(F)C1=O)Cc1ccccc1OC [Compound 35, 2,5-bis-{6-[ethyl-(2-methoxy-benzyl)-amine]-hexylamine}-3,6-difluorine-[1,4]benzoquinone] | 0.00517 ± 0.00017 | 294 | 1.52 ± 0.09
